Assay results reported in ChEMBL document CHEMBL1201862, “PubChem BioAssay data set” (2004).
The source made the active and inactive calls.

What was measured:
[1] = biological target: T1, fMet-Leu-Phe receptor (Homo sapiens, UniProt P21462); assay: FPR ligands, dose response (AID 519); assay type: functional
T1 sequence (P21462 whole entry): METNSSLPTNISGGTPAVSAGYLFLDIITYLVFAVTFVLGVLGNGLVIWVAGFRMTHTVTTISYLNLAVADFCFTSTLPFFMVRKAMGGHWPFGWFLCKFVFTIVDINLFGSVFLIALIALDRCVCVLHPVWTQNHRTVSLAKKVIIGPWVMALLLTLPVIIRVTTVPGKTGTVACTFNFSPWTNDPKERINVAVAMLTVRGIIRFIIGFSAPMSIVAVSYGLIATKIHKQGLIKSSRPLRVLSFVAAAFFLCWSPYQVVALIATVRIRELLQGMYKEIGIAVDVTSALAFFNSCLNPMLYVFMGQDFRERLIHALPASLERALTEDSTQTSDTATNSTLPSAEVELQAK

[2] = cytotoxicity in OVCAR8 ovarian cancer cells, dose response, PAX8 project, cell-based, plate reader, dry powder samples (AID 743197); assay type: functional; conditions: OVCAR-8
[3] = biological target: Paired box protein Pax-8 (Homo sapiens, UniProt Q06710); assay: inhibitors of PAX8-driven TPO luciferase reporter, dose response, RMG-I cells, cherry-pick (AID 687027); assay type: functional, cell-based;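 note: luciferase reporter driven by Pax8 target thyroperoxidase promoter measured by SteadyGlo luminescence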
Chain of Paired box protein Pax-8 (Q06710 whole entry): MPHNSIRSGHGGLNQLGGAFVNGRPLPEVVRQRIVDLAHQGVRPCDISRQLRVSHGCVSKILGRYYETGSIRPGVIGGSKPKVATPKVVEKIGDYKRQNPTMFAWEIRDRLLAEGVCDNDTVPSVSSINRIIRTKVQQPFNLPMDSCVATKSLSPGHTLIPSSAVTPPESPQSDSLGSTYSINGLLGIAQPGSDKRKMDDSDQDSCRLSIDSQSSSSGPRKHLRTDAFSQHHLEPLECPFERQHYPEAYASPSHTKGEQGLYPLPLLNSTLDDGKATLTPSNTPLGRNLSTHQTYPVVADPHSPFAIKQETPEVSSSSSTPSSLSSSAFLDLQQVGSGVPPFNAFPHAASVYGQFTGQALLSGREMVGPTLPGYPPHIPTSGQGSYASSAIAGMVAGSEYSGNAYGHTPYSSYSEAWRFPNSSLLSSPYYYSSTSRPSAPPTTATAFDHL

[4] = NIH:OVCAR-3 ovarian cancer cell cytotoxicity, dose response, PAX8 inhibitor project, plate reader, dry powder samples (AID 743044); assay type: functional, cell-based
[5] = non-specific cell cytotoxicity, dose response, cytotoxicity control for PAX8 inhibitor project, plate reader, dry powder samples (AID 743021); assay type: functional, cell-based
[6] = biological target: T2, Tyrosyl-DNA phosphodiesterase 2 (Homo sapiens, UniProt O95551); assay: human TDP2 enzyme inhibitors, dose response, biochemical, epi absorbance, IC50 (AID 743297)
T2 sequence (O95551 whole entry): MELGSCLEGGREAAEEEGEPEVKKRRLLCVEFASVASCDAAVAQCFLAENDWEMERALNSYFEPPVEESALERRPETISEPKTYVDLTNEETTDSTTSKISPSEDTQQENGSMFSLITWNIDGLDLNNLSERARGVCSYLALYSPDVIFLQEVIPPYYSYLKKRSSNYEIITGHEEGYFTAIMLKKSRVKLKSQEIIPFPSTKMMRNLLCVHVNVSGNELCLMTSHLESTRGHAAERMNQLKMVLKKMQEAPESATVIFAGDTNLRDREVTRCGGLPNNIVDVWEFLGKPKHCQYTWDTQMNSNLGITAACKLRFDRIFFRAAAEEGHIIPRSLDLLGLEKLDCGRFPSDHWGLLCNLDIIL

[7] = biological target: T3, Histone-lysine N-methyltransferase NSD2 (Homo sapiens, UniProt O96028); assay type: biochemical
T3 sequence (O96028 whole entry): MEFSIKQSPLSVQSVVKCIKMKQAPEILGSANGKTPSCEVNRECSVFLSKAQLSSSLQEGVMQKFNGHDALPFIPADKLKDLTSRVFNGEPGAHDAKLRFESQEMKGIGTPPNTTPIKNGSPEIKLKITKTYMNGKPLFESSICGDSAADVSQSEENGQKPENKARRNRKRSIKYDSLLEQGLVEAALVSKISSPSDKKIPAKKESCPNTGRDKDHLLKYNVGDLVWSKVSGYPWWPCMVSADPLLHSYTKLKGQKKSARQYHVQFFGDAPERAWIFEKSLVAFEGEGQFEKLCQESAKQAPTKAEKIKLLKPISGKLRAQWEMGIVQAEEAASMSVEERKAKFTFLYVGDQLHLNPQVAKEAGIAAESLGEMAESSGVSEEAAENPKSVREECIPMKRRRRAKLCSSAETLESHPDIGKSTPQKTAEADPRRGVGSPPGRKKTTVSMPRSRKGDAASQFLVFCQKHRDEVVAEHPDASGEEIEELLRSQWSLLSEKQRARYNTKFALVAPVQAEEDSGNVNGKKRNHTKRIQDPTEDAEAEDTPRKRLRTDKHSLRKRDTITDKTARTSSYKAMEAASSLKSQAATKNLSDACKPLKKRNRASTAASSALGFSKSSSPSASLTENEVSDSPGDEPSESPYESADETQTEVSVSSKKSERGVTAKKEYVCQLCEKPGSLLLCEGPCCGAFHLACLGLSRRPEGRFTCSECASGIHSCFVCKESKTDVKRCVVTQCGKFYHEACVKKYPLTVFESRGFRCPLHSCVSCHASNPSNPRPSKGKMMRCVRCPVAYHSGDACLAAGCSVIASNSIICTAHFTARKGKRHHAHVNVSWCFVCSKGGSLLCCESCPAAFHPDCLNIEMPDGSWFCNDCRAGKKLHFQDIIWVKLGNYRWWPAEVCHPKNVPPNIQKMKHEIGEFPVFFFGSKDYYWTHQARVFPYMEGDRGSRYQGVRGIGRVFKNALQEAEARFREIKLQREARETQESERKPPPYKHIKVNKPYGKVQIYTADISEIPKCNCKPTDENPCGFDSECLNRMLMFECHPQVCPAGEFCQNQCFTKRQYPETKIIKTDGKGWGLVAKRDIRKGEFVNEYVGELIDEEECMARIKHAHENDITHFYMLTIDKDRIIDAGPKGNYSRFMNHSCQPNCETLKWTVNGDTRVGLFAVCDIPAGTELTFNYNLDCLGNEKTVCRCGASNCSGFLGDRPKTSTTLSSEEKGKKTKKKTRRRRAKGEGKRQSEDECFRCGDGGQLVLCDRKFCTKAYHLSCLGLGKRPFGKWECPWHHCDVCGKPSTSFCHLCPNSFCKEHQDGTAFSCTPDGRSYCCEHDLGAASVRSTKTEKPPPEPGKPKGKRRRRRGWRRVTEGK

SMILES	Ki [1]	AC50 [3]	AC50 [5]	further results
COC(=O)Cc1n[nH]c2c1C(C1C=CCCC1)C(C#N)=C(N)O2 (stereo not given)	> 66.7 µM (inactive)	–	–	–
C[C@H](CO)N1C[C@H](C)[C@H](CN(C)S(=O)(=O)c2ccc(Cl)cc2)Oc2c(NC(=O)Nc3ccc(F)cc3)cccc2C1=O	–	10.2 µM (active)	51.4 µM (active)	AC50 [2]: 31.8 µM (active); AC50 [4]: 31.8 µM (active)
C[C@@H]1CCCCO[C@H](CN(C)S(=O)(=O)c2ccc(F)cc2)[C@H](C)CN([C@@H](C)CO)C(=O)c2cc(NS(=O)(=O)c3ccc(Cl)cc3)ccc2O1	–	9.75 µM (active)	68.4 µM (active)	–
S=C(Nc1ccc2nsnc2c1)N1CCCCC1	–	–	–	IC50 [6]: > 128 µM (inactive); AC50 [7]: 5.13 µM (active)
C[N+]1(C)[C@@H]2C[C@@H](OC(=O)[C@H](CO)c3ccccc3)C[C@H]1[C@@H]1O[C@@H]12	> 66.7 µM (inactive)	–	–	–
